Assays:
[1] = test system: human embryonic stem cells (hESC); assay: hESC proliferation, trypan blue assay; assay type: cell-based; conditions: 6 d; E2 (10 nM), P4 (2 μM); compared to untreated control cells
Experimental: We therefore tested whether P4 was essential for the induction of NPC from hESC. hESC were treated with P4, E2 (which upregulates P4 receptor (PR) expression), or a combination of E2+P4.

[2] = test system: male Sprague Dawley rats with craniectomy or controlled cortical impact (CCI) injury; assay: Plasma steroid concentrations after craniectomy (Sham) or CCI injury, hCG with or without RU-486; assay type: in vivo, rat
Experimental: Male Sprague Dawley (SD) rats (n=58, 5-6-months old) were acquired from Harlan Laboratories Inc. (Madison, WI) and acclimated to the environment over 2 days. Rats were then weighed and handled for no less than 5 min each for 5 consecutive days and daily thereafter while being housed, fed and maintained on a 12-hour reverse light/dark cycle. The Institutional Animal Care and Use Committee (Animal Component of Research Protocol) at the William S. Middleton Veterans Administration Hospital approved the procedures used in this study and the research was conducted in an AAALAC-approved facility. Experimenters were blinded as to the identity of the animals throughout injections, blood collections, and body weight and hormone data analyses.
All surgical procedures were carried out under isoflurane gas anesthesia (5% for induction; 1.5-3.0% for maintenance, craniectomy ˜15-30 min duration; craniectomy+CCI injury ˜25-45 min duration). An anesthesia chamber was used for induction and a nose cone was used for maintenance.
Anesthetized rats were mounted in a Kopf stereotaxic device (Model 900; Tujunga, CA), where the animal's head was held in place by non-traumatic ear bars and a bite bar. Anesthesia was maintained by nose cone while the head was shaved and sterilized with 70% ethanol and Betadine™ (Purdue Products L.P., Stamford, CT) antiseptic solution. Throughout surgery anesthesia levels were monitored closely and were frequently adjusted as need, based on heart rate, respiration rate and oxygen saturation. A homeothermic blanket control unit (Harvard Apparatus, Holliston, MA) was used to monitor body temperature and to prevent hypothermia throughout surgery.
Under aseptic conditions, the cranium and its bony landmarks including bregma (β) and lambda (λ) were exposed by making a midline incision along the scalp into the skin and fascia covering the skull. A 6 mm diameter craniectomy was centered on the midline at 2.5 mm anterior to β. The cortical impact was made at 2.5 mm anterior to β over the midline of the medial frontal cortex with an Impact One™ Stereotaxic CCI instrument (Leica, Buffalo Grove, IL), using a 5 mm impactor (bit size), traveling at 2.25 m/s (velocity), extending 3 mm below the cortical surface (impact depth) for 100 ms (dwell time). Sham-injured groups received the same surgical procedures up to and including craniectomy but no CCI injury. After surgery, the rats were placed on a heating pad, monitored closely and upon awakening were tested 30 min later for righting reflex to assess any immediate effects of craniectomy or CCI injury on righting ability, and then returned to their home cages.
Baseline blood draws were collected from all animals. […] Pregnyl® is a highly purified pyrogen-free preparation obtained from the urine of pregnant females. Each vial contains 10,000 USP units of sterile dried powder with 5 mg monobasic sodium phosphate and 4.4 mg dibasic sodium phosphate that is diluted in solvent containing water, 0.56% sodium chloride and 0.9% benzyl alcohol (www.drugs.com/pro/pregnyl.html).
Rats were anesthetized (between 9:00 a.m.-12:00 noon) and their tails placed in a 200 mL beaker filled with warm water (≤44° C.) for 5 min. The tail was clean with 70% alcohol, the minimal amount of the tail tip snipped with a blade, and/or the wound reopened by removal of the scab for subsequent bleeds, and ˜1 mL of whole blood was collected directly into EDTA tubes at baseline (PID-10) and at PID, 1, 11, 19 and 29. […] Animals were injected with Lactate Ringers solution (5 mL) for fluid resuscitation. At the terminal bleed (day 29), blood also was collected via heart puncture. Collected blood was immediately centrifuged at 4,000 g for 10-20 min and the plasma aliquoted into Eppendorf tubes for storage at −80° C.

[3] = test system: hESC; assay: hESC differentiation into neuroectoderm / neural precursor cells (nestin immunoblot, rosettes); assay type: cell-based, human
Experimental: FIG. 5A. hESC were grown in TESR1 media-Li in the presence of E2 (10 nM), P4 (2 μM) or E2 (10 nM)+P4 (2 μM) for 6 d and cell proliferation measured using the trypan blue assay. Results are expressed as mean±SEM, n=3 (*p<0.05, **p<0.005 compared to 6 d control). FIG. 5B. Equal amounts of protein from cell lysates of hESC treated for 9 d as described above were analyzed by immunoblot using a monoclonal antibody against nestin (clone 10C2; Chemicon, CA, USA). FIG. 5C. hESC were cultured for 4 days, enzymatically lifted and placed into EB media (containing serum) and rocked gently for an additional 4 days prior to being placed in one of two neural induction medias for an additional 11 days, where P4 was either absence or present. During this transition from EB to rosettes, colony structures treated with P4 also were treated with a Progesterone Receptor (PR) antagonist (RU-486; 20 μM) for 11 days. At 19 day, morphological observation and molecular analysis were performed. (i) Control structure, a minimum of three rosette structures were observed inside the cystic cavity (arrows). (ii) hESC structure in the absence of P4 (no rosettes) (iii) PR antagonist treated rosettes (no rosettes; RU-486, 20 μM). FIG. 5D. Equal amounts of protein from cell lysates of above structures were analyzed by immunoblot for nestin.
These structures are predominantly composed of NPCs (NSCs) akin to those that form the neural tube and can be further differentiated into various neural lineages. To understand which hormonal signals regulate the specification of hESC into NSCs, we closely examined the composition of the medias and supplements that had been developed by trial and error for the maintenance of hESC, and their differentiation first into embryoid bodies (EBs) and then into NPC. We identified P4 in the B27 supplement as being necessary and sufficient for the survival and differentiation of late embryonic neurons in vitro (E18 primary hippocampal/cortical/striatal neurons). […]

Row | Molecule | decrease in rate of hESC proliferation [1] | plasma P4 concentration ([2]; CCI injured animals with RU-486 pretreatment, PID 1) | plasma T concentration ([2]; CCI injured animals with RU-486 pretreatment, PID 11) | plasma T concentration ([2]; CCI injured animals with RU-486 pretreatment, PID 19) | effect on circulating 11-DOC and corticosterone ([2]; CCI injured animals, RU486 pretreatment) | effect on corticosterone ([2]; Sham surgery, saline and hCG-treated animals, RU486 pretreatment (except PID 19 in Sham+hCG)) | circulating 11-DOC ([2]; Sham+hCG rats with RU486 pretreatment (40 mg/kg i.p.), PID 1) | plasma P4 concentration ([2]; Sham+hCG with RU486 pretreatment, PID 29) | effect on 11-DOC ([2]; Sham+saline with RU486 pretreatment) | nestin (immunoblot) in PR-antagonist treated structures ([3]; RU-486 20 μM) | neuroectodermal rosette formation ([3]; RU-486 20 μM for 11 days, in presence of P4) | nestin expression (immunoblot) ([3]; hESC treated for 9 d, E2 (10 nM), P4 (2 μM))
1 | C[C@]12CC[C@@H]3c4ccc(O)cc4CC[C@H]3[C@@H]1CC[C@@H]2O [E2, estradiol] | 16% | – | – | – | – | – | – | – | – | – | – | –
2 | 11β-[p-(Dimethylamino)phenyl]-17α-(1-propynyl)estra-4,9-dien-17β-ol-3-one [RU-486] | – | 40.9 ± 10.0 ng/mL | 4.5 ± 1.5 ng/mL | 3.1 ± 1.1 ng/mL | no significant effects | prevented Sham surgery-induced decreases in corticosterone through PID 29 | 282.4 ± 28.0 ng/mL | 8.5 ± 4.5 ng/mL | preventing the Sham+saline treatment-induced decrease in 11-DOC through PID29 | absence of nestin | No rosettes were detected | –
3 | CC(=O)[C@H]1CC[C@H]2[C@@H]3CCC4=CC(=O)CC[C@]4(C)[C@H]3CC[C@]12C [P4, progesterone] | 29% | – | – | – | – | – | – | – | – | – | – | increased the neuroectodermal marker nestin
